Test results reported in US12649980B2, “Three-dimensional surface for protein and small molecule microarrays” (The Johns Hopkins University, priority 2019, dated 2026).

Experiments:
GLUT1 [1] = target: T1, GLUT1 (Homo sapiens, UniProt P11166); assay: rapafucin 3D microarray screen with GLUT1-containing cell lysate; type: binding; conditions: signal-to-background ratio, 3D surface, lysate of GLUT1-overexpressing HEK293T; hit if SBR > 3
T1 construct: The full-length human SLC2A1, SLC2A3, and SLC2A4 genes were PCR amplified and inserted into pLenti6M vector 2; expressed in transfected cells
T1 sequence (P11166 1-492): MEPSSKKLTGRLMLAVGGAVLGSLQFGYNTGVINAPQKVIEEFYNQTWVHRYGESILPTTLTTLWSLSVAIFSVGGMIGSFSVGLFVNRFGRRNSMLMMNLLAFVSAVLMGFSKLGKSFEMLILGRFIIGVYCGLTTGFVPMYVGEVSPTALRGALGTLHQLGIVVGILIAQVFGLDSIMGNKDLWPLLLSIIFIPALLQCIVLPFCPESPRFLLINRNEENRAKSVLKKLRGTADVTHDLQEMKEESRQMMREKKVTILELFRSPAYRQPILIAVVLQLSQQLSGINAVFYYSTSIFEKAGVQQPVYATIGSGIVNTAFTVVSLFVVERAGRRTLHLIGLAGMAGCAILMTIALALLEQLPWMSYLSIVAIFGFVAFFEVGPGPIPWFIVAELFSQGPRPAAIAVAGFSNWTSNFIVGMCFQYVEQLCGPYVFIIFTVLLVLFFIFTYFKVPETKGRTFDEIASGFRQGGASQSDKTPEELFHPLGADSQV
Excerpt: (§1) Once stock solutions of the rapafucin library were arrayed on the 2D or 3D surface and most of solvent carrier was evaporated, the crosslinking reaction was initiated by irradiating the surfaces with 365-nm wavelength UV light. Kawatani and Osada, Medchemcomm 2014, 5, 277-287. […] To screen for GLUT1-interacting rapafucins, GLUT1 was stably overexpressed in HEK293T cells and generated cell lysates containing detergent-solubilized recombinant GLUT1 (FIG. 10). The GLUT1-containing cell lysate was then incubated on both 2D and 3D rapafucin microarrays. After washing the slides to remove unbound proteins, the bound GLUT1 protein was detected with anti-GLUT1 antibodies, followed by visualization with Cy5-labeled secondary antibodies using a microarray scanner. Rapafucins were scored as positive hits when the corresponding SBR was greater than 3. Based on this criterion, a total of 17 rapafucin hits and one positive control BAY-876, a specific GLUT1 inhibitor, Siebeneicher et al., ChemMedChem 2016, 11, 2261-2271, were identified on the 3D rapafucin microarray. In contrast, only one hit (WL13-F11, also among the 17 hits identified from the 3D rapafucin microarray) was identified on the 2D rapafucin microarray (Table 1, FIG. 11).
The amine substrates (Arrayit, SMM) were immerged in a mixture of 2-bromoisobutyryl bromide (BIBB, 0.1 mM, as initiator) and propionyl bromide (10 mM, as horizontal spacer) with triethylamine (15 mM) in DCM for 4 hours. A degassed polymerization reaction mixture, containing copper (II) chloride dihydrate (CuCl2, 4 mmol), 2,2′-bipyridine (2 mmol), 75 mmol monomers mixture of 2-(dimethylamino)ethyl methacrylate (DMAEMA) and poly(ethylene glycol) methacrylate (PEGMA Mn 360) in 500 mL Milli-Q/MeOH, was mixed with freshly made ascorbic acid (4 mmol). The mixture was applied to 50 slides for 6 hours under the argon atmosphere for the surface-initiated polymerization. A gradient ratio of PEGMA and DMAEMA was set, including 10:0, 8:2, 5:5, 2:8 and 0:10 for an optimization purpose. The terminals of the brushes were further functionalized by N,N′-disuccinimidyl carbonate (DSC, 10 mM) and 4-dimethylaminopyridine (DMAP,10 mM) in DMF overnight to form succinimidyl carbonate intermediate, and, successively, diazirine linker 1 (10 mM) and N,Ndiisopropylethylamine (DIPEA, 50 mM) in DMF for 2 hours to couple the photoaffinity linker in dark at room temperature. At the end, the substrates were immerged in a 50 mM ethanolamine in DMF to block the residual carboxylic moiety. The slides were thoroughly washed by DMF, EtOH and DCM and dried in a fuming cupboard and ready for spotting.
10 mM of rapafucins in DMSO from the library were spotted onto the slides with a high-precision microarrayer (Nanoprint, Arrayit, CA) for a desired pattern in dark, which was loaded with 16 100-μm diameter micro-spotting pins. The pin heads were thoroughly washed and sonicated in ethanol and dried for 4 times under a compassed air between each sample loading. After overnight evaporation, the slides were exposed to 365-nm wavelength UV irradiation for 4 J/cm^2 by CL-1000L UV crosslinker (UVP, CA) for rapafucins covalent immobilization. The slides were ultrasonic cleaned successively in DCM, MeOH and Milli-Q water and stored in a −20° C. freezer.
(§2) In the optimization experiments, the slides were incubated with 50 nM purified recombinant FKBP12 for 1 hour, while in the GLUT1 screening, 10 mg/mL of cell lysate containing DDM-solubilized GLUT1 from GLUT1 overexpressed HEK293T was incubated for 1 hour. Successively, primary antibody and CY5 labeled secondary antibody were added for 1 hour. The chips were washed in buffer A for 5 mins 3 times after the sample and antibodies incubation. After centrifugation, the dried chips were scanned by a microarray scanner (Genepix, US) at 635-nm wavelength. The final result was analyzed by GenePix software.

GLUT1 [2] = target: T1, GLUT1; assay: rapafucin 2D microarray screen with GLUT1-containing cell lysate; type: binding; conditions: signal-to-background ratio, 2D surface, same lysate and conditions
Excerpt: as §1, §2

A549 cells = assay: [3H]-2DG uptake assay in A549 cells; type: cell-based, human; conditions: 10 min incubation with compound, mean ± s.d., n = 3
Method: To determine which of the 17 rapafucin hits inhibited the transporter activity of GLUT1, an orthogonal glucose uptake assay using 2-deoxy-D-[3H] glucose ([3H]-2DG), a nonhydrolyzable, radioactive glucose analog, was employed. Each hit was separately incubated with A549 cells for 10 min before the amount of [3H]-2DG taken up by the cells was measured using scintillation counting. […] The effect of JW11-D2 on uptake of [3H]-2DG in human red blood cells that exclusively express GLUT1 was then determined. Helgerson and Carruthers, J. Biol. Chem. 1987, 262, 5464-5475. […] To further improve the potency of JW11-D2, a structure-activity relationship (SAR) study was performed by synthesizing 21 new analogs of JW11-D2 using different amino acid building blocks.
The inhibitory activity of compounds on glucose transport was analyzed by measuring the cell uptake of [3H]-2DG as previously described. Ulanovskaya et al., Chem. Biol. 2011, 18, 222-230. Briefly, cells were washed twice and incubated in low-glucose medium for 10 min. Cells were added drugs and incubated for another 10 min before adding [3H]-2DG. After 10 min incubation with [3H]-2DG, cells were washed twice and lysed with 0.2 N NaOH plus 0.2% SDS. The cell lysate was transferred to a new tube containing 1 mL of optiphase supermix. Glucose uptake was quantified with a scintillation counter.

3D SBR (GLUT1 [1]) | 2D SBR (GLUT1 [2]) | IC50 (A549 cells) [µM] | Compound
– | – | > 3 | CCC(C)C1C(=O)NCC(=O)N(C)CCC=CC(=O)OCC(C)(C)C(=O)C(=O)N2CCCCC2C(=O)OC(CCc2ccc(OC)c(OC)c2)c2cccc(c2)NC(=O)CCC(=O)N(C)C(CC(C)C)C(=O)NC(CC(C)C)C(=O)N1C (centres unmarked) [JW11-D2-15]
– | – | > 3 | CCC(C)C1C(=O)NCC(=O)N(C)CCC=CC(=O)OCC(C)(C)C(=O)C(=O)N2CCCCC2C(=O)OC(CCc2ccc(OC)c(OC)c2)c2cccc(c2)NC(=O)CCC(=O)NC(CC(C)C)C(=O)NC(Cc2ccccc2)C(=O)N1C (centres unmarked) [JW11-D2-16]
– | – | > 3 | CCC(C)C1C(=O)NC(Cc2ccccc2)C(=O)N(C)C(C(C)CC)C(=O)NCC(=O)N(C)CCC=CC(=O)OCC(C)(C)C(=O)C(=O)N2CCCCC2C(=O)OC(CCc2ccc(OC)c(OC)c2)c2cccc(c2)NC(=O)CCC(=O)N1C (centres unmarked) [JW11-D2-17]
– | – | > 3 | CCCC1C(=O)NC(Cc2ccccc2)C(=O)N(C)C(C(C)CC)C(=O)NCC(=O)N(C)CCC=CC(=O)OCC(C)(C)C(=O)C(=O)N2CCCCC2C(=O)OC(CCc2ccc(OC)c(OC)c2)c2cccc(c2)NC(=O)CCC(=O)N1C (centres unmarked) [JW11-D2-18]
– | – | > 3 | CCCCC1C(=O)NC(Cc2ccccc2)C(=O)N(C)C(C(C)CC)C(=O)NCC(=O)N(C)CCC=CC(=O)OCC(C)(C)C(=O)C(=O)N2CCCCC2C(=O)OC(CCc2ccc(OC)c(OC)c2)c2cccc(c2)NC(=O)CCC(=O)N1C (centres unmarked) [JW11-D2-19]
– | – | 0.0623 ± 0.0051 | CCC(C)C1C(=O)NCC(=O)N(C)CCC=CC(=O)OCC(C)(C)C(=O)C(=O)N2CCCCC2C(=O)OC(CCc2ccc(OC)c(OC)c2)c2cccc(c2)NC(=O)CCC(=O)N(C)C(C(C)C)C(=O)NC(Cc2ccccc2)C(=O)N1C (centres unmarked) [JW11-D2-20]
– | – | > 3 | CCC(C)C1C(=O)NCC(=O)N(C)CCC=CC(=O)OCC(C)(C)C(=O)C(=O)N2CCCCC2C(=O)OC(CCc2ccc(OC)c(OC)c2)c2cccc(c2)NC(=O)CCC(=O)N(C)C(Cc2ccccc2)C(=O)NC(Cc2ccccc2)C(=O)N1C (centres unmarked) [JW11-D2-21]
5.1 ± 0.7 | <3.0 | > 3 | COc1ccc(CC[C@H]2OC(=O)[C@@H]3CCCCN3C(=O)C(=O)C(C)(C)COC(=O)C=CCCN(C)C(=O)CNC(=O)CN(C)C(=O)[C@H](Cc3ccc(O)cc3)NC(=O)[C@@H](Cc3ccccc3)N(C)C(=O)COc3cccc2c3)cc1OC [WL03-G11]

The remaining lines, values behind:

Compound | 3D SBR (GLUT1 [1]) | 2D SBR (GLUT1 [2]) | IC50 (A549 cells) [µM]
CCCC[C@H]1C(=O)N[C@@H](Cc2ccccc2)C(=O)N(C)CCC=CC(=O)OCC(C)(C)C(=O)C(=O)N2CCCC[C@H]2C(=O)O[C@H](CCc2ccc(OC)c(OC)c2)c2cccc(c2)NC(=O)CCC(=O)N(C)[C@H](Cc2ccccc2)C(=O)N[C@@H](Cc2ccc(F)cc2)C(=O)N1C [HP05-A9] | 3.4 ± 1.4 | <3.0 | > 3
CCC(C)C1C(=O)NC(Cc2ccccc2)C(=O)N(C)CCC=CC(=O)OCC(C)(C)C(=O)C(=O)N2CCCCC2C(=O)OC(CCc2ccc(OC)c(OC)c2)c2cccc(c2)OCC(=O)N(C)CC(=O)NC(Cc2ccc(F)cc2)C(=O)N1C (centres unmarked) [HP05-F5] | 7.9 ± 2.6 | <3.0 | > 3
CCC(C)C1C(=O)N(C)CC(=O)N(C)CCC=CC(=O)OCC(C)(C)C(=O)C(=O)N2CCCCC2C(=O)OC(CCc2ccc(OC)c(OC)c2)c2cccc(c2)NC(=O)CCC(=O)N(C)C(CC(C)C)C(=O)NC(Cc2ccccc2)C(=O)N1C (centres unmarked) [JW11-D2-1] | – | – | > 3
CCC(C)C1C(=O)N2CCCC2C(=O)N(C)CCC=CC(=O)OCC(C)(C)C(=O)C(=O)N2CCCCC2C(=O)OC(CCc2ccc(OC)c(OC)c2)c2cccc(c2)NC(=O)CCC(=O)N(C)C(CC(C)C)C(=O)NC(Cc2ccccc2)C(=O)N1C (centres unmarked) [JW11-D2-2] | – | – | > 3
CCC(C)C1C(=O)N2CCCC2C(=O)N(C)CCC=CC(=O)OCC(C)(C)C(=O)C(=O)N2CCCCC2C(=O)OC(CCc2ccc(OC)c(OC)c2)c2cccc(c2)NC(=O)CCC(=O)N(C)C(CC(C)C)C(=O)NC(Cc2ccccc2)C(=O)N1C (centres unmarked) [JW11-D2-3] | – | – | > 3
COc1ccc(CCC2OC(=O)C3CCCCN3C(=O)C(=O)C(C)(C)COC(=O)C=CCCN(C)C(=O)CNC(=O)C(C(C)C)N(C)C(=O)C(Cc3ccccc3)NC(=O)C(CC(C)C)N(C)C(=O)CCC(=O)Nc3cccc2c3)cc1OC (centres unmarked) [JW11-D2-4] | – | – | 0.0302 ± 0.0023
CCCCC1C(=O)NCC(=O)N(C)CCC=CC(=O)OCC(C)(C)C(=O)C(=O)N2CCCCC2C(=O)OC(CCc2ccc(OC)c(OC)c2)c2cccc(c2)NC(=O)CCC(=O)N(C)C(CC(C)C)C(=O)NC(Cc2ccccc2)C(=O)N1C (centres unmarked) [JW11-D2-7] | – | – | > 3
CCCC1C(=O)NCC(=O)N(C)CCC=CC(=O)OCC(C)(C)C(=O)C(=O)N2CCCCC2C(=O)OC(CCc2ccc(OC)c(OC)c2)c2cccc(c2)NC(=O)CCC(=O)N(C)C(CC(C)C)C(=O)NC(Cc2ccccc2)C(=O)N1C (centres unmarked) [JW11-D2-8] | – | – | > 3
COc1ccc(CCC2OC(=O)C3CCCCN3C(=O)C(=O)C(C)(C)COC(=O)C=CCCN(C)C(=O)CNC(=O)C(CC(C)C)N(C)C(=O)C(Cc3ccccc3)NC(=O)C(CC(C)C)N(C)C(=O)CCC(=O)Nc3cccc2c3)cc1OC (centres unmarked) [JW11-D2-9] | – | – | > 3
CCC(C)C1C(=O)NCC(=O)N(C)CCC=CC(=O)OCC(C)(C)C(=O)C(=O)N2CCCCC2C(=O)OC(CCc2ccc(OC)c(OC)c2)c2cccc(c2)NC(=O)CCC(=O)N(C)C(CC(C)C)C(=O)NC(CCc2ccccc2)C(=O)N1C (centres unmarked) [JW11-D2-10] | – | – | > 3
CCC(C)C1C(=O)NCC(=O)N(C)CCC=CC(=O)OCC(C)(C)C(=O)C(=O)N2CCCCC2C(=O)OC(CCc2ccc(OC)c(OC)c2)c2cccc(c2)NC(=O)CCC(=O)N(C)C(CC(C)C)C(=O)NC(Cc2ccc(O)cc2)C(=O)N1C (centres unmarked) [JW11-D2-13] | – | – | > 3
CCC(C)C1C(=O)NCC(=O)N(C)CCC=CC(=O)OCC(C)(C)C(=O)C(=O)N2CCCCC2C(=O)OC(CCc2ccc(OC)c(OC)c2)c2cccc(c2)NC(=O)CCC(=O)N(C)C(CC(C)C)C(=O)N(C)C(Cc2ccccc2)C(=O)N1C (centres unmarked) [JW11-D2-14] | – | – | 0.0385 ± 0.0047
